From patent publication US11532406B2, “High specific activity preparation of F-18 tetrafluoroborate” (Mayo Foundation for Medical Education and Research, priority 2016, dated 2022)
“Also recorded” adds a separate entry of the source.

Key:
[1] = Safety measurements for ^18F-TFB administration (vital signs, clinical laboratory tests); assay type: in vivo, human
Procedure: Vital signs (heart rate, systolic and diastolic blood pressures, respiratory rate, and temperature) were measured prior to ^18F-TFB administration and at 45 and 240 min post-injection. Venous blood samples were taken prior to ^18F-TFB administration and at ˜240 min post-injection for a panel of clinical laboratory tests to evaluate the safety of the radiotracer administration.

[2] = Estimated plasma / in vivo concentration of TFB after ~400 MBq ^18F-TFB; set-up: species or system human; conditions: specific activity of 8 GBq/μmol, ~400 MBq administered dose
[3] = ~400 MBq ^18F-TFB synthesized by the conventional method, human subject; Jauregui-Osoro et al. (14); cited from earlier work
[4] = Measurements in venous blood and urine samples, HPLC metabolite analysis; assay type: in vivo, human; conditions: all urine samples, approximately 50, 160, 250 min
[5] = tested on: hNIS-expressing C6 glioma xenograft; experiment: Dynamic PET imaging in hNIS-expressing C6 glioma xenografted athymic mice; assay type: in vivo
Procedure: Studies with mice were performed under approval of the Mayo Clinic Institutional Animal Care and Use Committee. Dynamic PET imaging was performed in hNIS-expressing C6 glioma xenografted athymic mice following retro-orbital injection ˜1.1 MBq Na ^18F-TFB at different specific activities (10-0.001 mg TFB/Kg mouse) to assess hNIS activity with ^18F-TFB. In this xenograft model, one flank has hNIS-negative C6 glioma tumor xenograft and the other flank had hNIS-expressing C6 glioma xenograft.
PET scans were acquired for 60 min followed by an X-ray scan using the GENISYS4 PET imaging system (Sofie Biosciences, CA). The images from 40 hNIS-expressing C6 glioma xenografted mice were analyzed for Standardized Uptake Value (SUV) in tumor, stomach, and thyroid using AMIDE image processing software (20). The SUV in tumor was normalized with SUV in stomach to account for difference in ^18F-TFB bioavailability in different animals due to competing uptake in normal organs like thyroid, salivary glands and stomach.

[6] = PET/CT imaging of ^18F-TFB in healthy participants (pharmacokinetics, biodistribution); assay type: in vivo, human
Source text: Approval of the study was obtained from the Mayo Clinic Institutional Review Board and all participants provided informed consent. Four male (36±14 y) and four female (35±8 y) healthy volunteers were enrolled in the study. Participants were excluded that had previous diagnosis of cancer or clinically significant cardiovascular, renal, pulmonary, metabolic, and endocrine (thyroid) diseases. Participants were not required to fast prior to the imaging study but instructed to remain well-hydrated.
The imaging protocol is illustrated in FIG. 13. After voiding of the bladder, participants were positioned in a GE 690XT PET/CT scanner (GE HealthCare, Waukesha, Wis.) in a supine position with the heart in the center of the axial field of view. Intravenous catheters were placed in both arms for radiotracer injection and blood sampling. Computed tomography scans of the thorax were initially acquired in the preparation for a dynamic PET data acquisition over the heart for the first 45 min following commencement of radiotracer administration. ^18F-TFB (333-407 MBq) was administered over 1 minute into one of the catheters. The frame sequence for initial dynamic PET acquisition was 15×4, 8×15, 4×30, and 8×300 seconds. Following the dynamic heart scan, the participants were allowed a break from the scanner, during which time voided their bladders. Two additional PET/CT scans, from the vertex of the skull to mid-thigh, were performed at 2 hours and 3.5 hours respectively. The last PET/CT scan was completed ˜4 h post-injection.
All PET scans images were reconstructed using 3D OSEM and time-of-flight reconstruction. Volumes of interest (VOI's) of organs were drawn using PMOD software (Ver. 3.5). Standardized Uptake Values (SUVs) normalized to body weight were then calculated for each VOI. Time-activity curves (TACs) were evaluated from the initial dynamic scan over the heart for left-ventricular blood pool, lung and liver regions.

[7] = C6-glioma xenograft mouse model, PET
[8] = representative participant, post-administration

- estimated in vivo concentration of TFB [2]: ~0.02 µM
- radioactivity in the form of ^18F-TFB in urine [4]: > 97%
- uptake in thyroid, stomach, bladder and hNIS-expressing tumors [5, 7]: Robust uptake
- stomach uptake versus specific activity ([5]; mouse, in vivo): independent of specific activity
- stomach uptake over 60 min ([5]; over 60 min): linear increase
- uptake kinetic in thyroid and hNIS-expressing tumor ([5]; rapid uptake over first 10 min, slower until 30 min): bi-phasic kinetic
- PET/CT-derived distribution (SUV), Bone ([6]; females, 2 h post-injection): 0.74 ± 0.20 SUV
- PET/CT-derived distribution (SUV), Brain ([6]; females, 2 h post-injection): 0.42 ± 0.15 SUV
- PET/CT-derived distribution (SUV), Breast ([6]; females, 2 h post-injection): 2.8 ± 0.4 SUV
- PET/CT-derived distribution (SUV), Gallbladder ([6]; females, 2 h post-injection): 3.7 ± 1.0 SUV
- PET/CT-derived distribution (SUV), Intestines ([6]; females, 2 h post-injection): 5.0 ± 2.7 SUV
- PET/CT-derived distribution (SUV), Kidney ([6]; females, 2 h post-injection): 5.6 ± 0.7 SUV
- PET/CT-derived distribution (SUV), Liver ([6]; females, 2 h post-injection): 2.7 ± 0.5 SUV
- PET/CT-derived distribution (SUV), Lung ([6]; females, 2 h post-injection): 1.2 ± 0.4 SUV
- PET/CT-derived distribution (SUV), Muscle ([6]; females, 2 h post-injection): 0.65 ± 0.35 SUV
- PET/CT-derived distribution (SUV), Myocardium ([6]; females, 2 h post-injection): 2.8 ± 0.5 SUV
- PET/CT-derived distribution (SUV), Pancreas ([6]; females, 2 h post-injection): 3.1 ± 1.7 SUV
- PET/CT-derived distribution (SUV), Parotid ([6]; females, 2 h post-injection): 20 ± 11 SUV
- PET/CT-derived distribution (SUV), Spleen ([6]; females, 2 h post-injection): 4.3 ± 1.0 SUV
- PET/CT-derived distribution (SUV), Stomach ([6]; females, 2 h post-injection): 72 ± 10 SUV
- PET/CT-derived distribution (SUV), Thyroid ([6]; females, 2 h post-injection): 50 ± 11 SUV
- PET/CT-derived distribution (SUV), Bone ([6]; females, 3.5 h post-injection): 1.3±0.9 SUV
- PET/CT-derived distribution (SUV), Brain ([6]; females, 3.5 h post-injection): 0.61 ± 0.34 SUV
- PET/CT-derived distribution (SUV), Breast ([6]; females, 3.5 h post-injection): 3.9 ± 1.4 SUV
- PET/CT-derived distribution (SUV), Gallbladder ([6]; females, 3.5 h post-injection): 5.0 ± 1.6 SUV
- PET/CT-derived distribution (SUV), Intestines ([6]; females, 3.5 h post-injection): 6.0 ± 3.1 SUV
- PET/CT-derived distribution (SUV), Kidney ([6]; females, 3.5 h post-injection): 6.3 ± 2.4 SUV
- PET/CT-derived distribution (SUV), Liver ([6]; females, 3.5 h post-injection): 3.5 ± 1.6 SUV
- PET/CT-derived distribution (SUV), Lung ([6]; females, 3.5 h post-injection): 1.5 ± 0.8 SUV
- PET/CT-derived distribution (SUV), Muscle ([6]; females, 3.5 h post-injection): 0.78 ± 0.54 SUV
- PET/CT-derived distribution (SUV), Myocardium ([6]; females, 3.5 h post-injection): 3.8 ± 1.8 SUV
- PET/CT-derived distribution (SUV), Pancreas ([6]; females, 3.5 h post-injection): 3.0 ± 1.2 SUV
- PET/CT-derived distribution (SUV), Parotid ([6]; females, 3.5 h post-injection): 25 ± 15 SUV
- PET/CT-derived distribution (SUV), Spleen ([6]; females, 3.5 h post-injection): 5.5 ± 2.8 SUV
- PET/CT-derived distribution (SUV), Stomach ([6]; females, 3.5 h post-injection): 51 ± 18 SUV
- PET/CT-derived distribution (SUV), Thyroid ([6]; females, 3.5 h post-injection): 58 ± 12 SUV
- blood clearance of radioactivity (left-ventricular blood pool time-activity curve) ([6]; healthy participants): multiphasic; also recorded: multi-phasic
- urinary clearance ([6]; healthy participants): prominent
- PET/CT-derived distribution (SUV), Bone ([6]; males, 2 h post-injection): 0.80 ± 0.33 SUV
- PET/CT-derived distribution (SUV), Brain ([6]; males, 2 h post-injection): 0.39 ± 0.14 SUV
- PET/CT-derived distribution (SUV), Gallbladder ([6]; males, 2 h post-injection): 2.7 ± 1.5 SUV
- PET/CT-derived distribution (SUV), Intestines ([6]; males, 2 h post-injection): 2.9 ± 1.0 SUV
- PET/CT-derived distribution (SUV), Kidney ([6]; males, 2 h post-injection): 7.0 ± 2.5 SUV
- PET/CT-derived distribution (SUV), Liver ([6]; males, 2 h post-injection): 2.3 ± 1.0 SUV
- PET/CT-derived distribution (SUV), Lung ([6]; males, 2 h post-injection): 1.0 ± 0.4 SUV
- PET/CT-derived distribution (SUV), Muscle ([6]; males, 2 h post-injection): 0.71 ± 0.31 SUV
- PET/CT-derived distribution (SUV), Myocardium ([6]; males, 2 h post-injection): 3.2 ± 0.9 SUV
- PET/CT-derived distribution (SUV), Pancreas ([6]; males, 2 h post-injection): 3.4 ± 0.7 SUV
- PET/CT-derived distribution (SUV), Parotid ([6]; males, 2 h post-injection): 11 ± 9 SUV
- PET/CT-derived distribution (SUV), Spleen ([6]; males, 2 h post-injection): 4.1 ± 1.2 SUV
- PET/CT-derived distribution (SUV), Stomach ([6]; males, 2 h post-injection): 33 ± 15 SUV
- PET/CT-derived distribution (SUV), Thyroid ([6]; males, 2 h post-injection): 55 ± 31 SUV
- PET/CT-derived distribution (SUV), Bone ([6]; males, 3.5 h post-injection): 1.4±0.5 SUV
- PET/CT-derived distribution (SUV), Brain ([6]; males, 3.5 h post-injection): 0.74 ± 0.26 SUV
- PET/CT-derived distribution (SUV), Gallbladder ([6]; males, 3.5 h post-injection): 4.2 ± 1.7 SUV
- PET/CT-derived distribution (SUV), Intestines ([6]; males, 3.5 h post-injection): 4.4 ± 1.0 SUV
- PET/CT-derived distribution (SUV), Kidney ([6]; males, 3.5 h post-injection): 11 ± 3 SUV
- PET/CT-derived distribution (SUV), Liver ([6]; males, 3.5 h post-injection): 3.6 ± 1.2 SUV
- PET/CT-derived distribution (SUV), Lung ([6]; males, 3.5 h post-injection): 1.7 ± 0.6 SUV
- PET/CT-derived distribution (SUV), Muscle ([6]; males, 3.5 h post-injection): 0.96 ± 0.31 SUV
- PET/CT-derived distribution (SUV), Myocardium ([6]; males, 3.5 h post-injection): 5.0 ± 0.9 SUV
- PET/CT-derived distribution (SUV), Pancreas ([6]; males, 3.5 h post-injection): 6.2 ± 2.1 SUV
- PET/CT-derived distribution (SUV), Parotid ([6]; males, 3.5 h post-injection): 16 ± 13 SUV
- PET/CT-derived distribution (SUV), Spleen ([6]; males, 3.5 h post-injection): 6.3 ± 1.1 SUV
- PET/CT-derived distribution (SUV), Stomach ([6]; males, 3.5 h post-injection): 70 ± 32 SUV
- PET/CT-derived distribution (SUV), Thyroid ([6]; males, 3.5 h post-injection): 82 ± 42 SUV
- time of peak radioactivity concentration, LVBP [6, 8]: ~1 min
- time of peak radioactivity concentration, liver [6, 8]: ~2 min
- time of peak radioactivity concentration, lung [6, 8]: ~1 min
SMILES: F[B-](F)(F)[18F] [^18F-TFB, ^18F-tetrafluoroborate]
- clinical laboratory test values after administration ([1]; blood chemistries, electrolytes, liver and kidney functional tests, relative to baseline): No significant changes; also recorded: no significant findings
- adverse effects ([1]; eight healthy participants): no adverse effects
- tolerability of administration ([1]; healthy participants, 333-407 MBq intravenous): well-tolerated; also recorded: well tolerated
- vital signs after administration ([1]; heart rate, blood pressures, respiratory rate, before vs after administration): No significant changes; also recorded: no significant findings
- estimated plasma concentration of TFB [3]: ~0.1 µM
- uptake by hNIS-expressing tumor versus specific activity ([5]; >13 MBq/μmol compared to 3 MBq/μmol): higher at high specific activity
- uptake in hNIS-negative tumors [5, 7]: No uptake
- uptake in thyroid, stomach, salivary glands and kidney ([6]; whole-body PET/CT at 2 h post-injection): Robust uptake; also recorded: high uptakes
